Results from patent US20090269419A1, “COSMETIC COMPOSITION BASED ON POLYUNSATURATED FATTY ACIDS AND ITS USES” (priority 2006, published 2009).

Key:
[1] = system: melanocytes; experiment: Inhibition of melanogenesis stimulated by theophylline; format: cell-based; conditions: AA-2G 2.5 mM for 12 hours; theophylline 0.5 mM
Protocol: • a) Culturing of melanocytes with AA-2G 2.5 mM+control without AA-2G for 12 hours • b) Stimulation of melanogenesis by theophylline (0.5 mM) • c) Detection of melanin by colorimetry (photos).

[2] = system: melanocytes; experiment: Reduction of intra-cellular melanin; format: cell-based; conditions: AA-2G 2 mM for 48 hours
Protocol: • a) Culturing of melanocytes for 48 hours • b) Addition of AA-2G 2 mM for 48 hours • c) Lysis of the cells in order to read the quantity of melanin contained.

[3] = system: collagenase; experiment: Anti-collagenase activity on frozen sections, collagen stained with picro-sirius and image analysis; format: biochemical
Protocol: The anti-collagenase activity test was carried out on ds-es frozen sections. The products to be tested were mixed (volume/volume) with a collagenase solution at 60 U/ml. Incubation took place in a humid chamber for 2 h at 37° C. The remaining collagen was stained with picro-sirius and quantified by image analysis.
• 1. Control TRIS buffer • 2. Collagenase […] • 3. Reference R: phenanthroline • 4. Reference R: phenanthroline+collagenase 60 U/ml • 5. Product P2: Immortelle very precious cream ref 05.34.A • 6. Product P2: Immortelle very precious cream ref 05.34.A+collagenase 60 U/ml
For each sample, 4 microscopic fields were analysed as a function of the size of the sample. Each microscopic field is digitised and analysed according to the method described below using the LEICA QWIN software.
1. Digitised Image • Staining of the collagen network
2. Detection of the Collagen by Thresholding • Binary mask 0
3. Determination of the Zone of Interest • Exclusion of the epidermis and annexes • Inversion of the mask so as to retain only the zone corresponding to the dermis • Binary mask 2
4. Selection of Collagen in the Zone of Interest • Binary mask 3=2+0
5. Surface measurement Measurement of binary mask 3 • Measurement of binary mask 2
6. Results Exporting of results to Excel • Calculation of the percentage of surface area occupied by collagen in the dermis

[4] = system: keratinocytes; experiment: Stimulation of ATP synthesis, intracellular ATP content by bioluminescence; format: cell-based; conditions: 0.01%; incubation for 6 hours
Protocol: After incubation for 6 hours, the intracellular ATP content was measured by bioluminescence using the kit “ATP Monitoring Kit” (LABSYSTEMS) according to the manufacturer's instructions. The results were expressed in mM of ATP and as a percentage of the control group.
Effect of Sepitonic M3 and of cytochrome C on the ATP content of keratinocytes after incubation for 6 hours: […]

In the case of `O=C1O[C@H]([C@@H](O)CO)C(O)=C1O[C@H]1O[C@H](CO)[C@@H](O)[C@H](O)[C@H]1O` [AA-2G, O-α-D-glucopyranosyl-(1→2)-L-ascorbic acid], the “quantity of developed melanin versus untreated melanocytes (photos)” value [1] is reported as “lesser quantity of developed melanin” and the “reduction of intra-cellular melanin” value [2] is reported as 60%.

`c1cnc2c(c1)ccc1cccnc12` [phenanthroline] was tested, and the “anti-collagenase activity, in words” value [3] was “completely inhibits the effect of collagenase”, the “percentage of surface area occupied by collagen in the dermis, Mean (typical variance)” value ([3]; With collagenase (60 U/ml mixed volume/volume), 2 h at 37° C.) was 90.4 (3.8) % and the “histological examination of the collagen” value ([3]; without collagenase) was “well structured”. The “percentage of surface area occupied by collagen in the dermis, Mean (typical variance)” value ([3]; without collagenase) was 88.7 (1.5) %.

With “Cytochrome C: reference in the keratinocyte ATP test” the “ATP content of keratinocytes, percentage of the control group (ES)” value [4] was “ES 110%”.
